Reference: patent US9018173B2, “Materials and methods for suppressing inflammatory and neuropathic pain” (Indiana University Research and Technology Corp., priority 2010, dated 2015)
Like-named read-outs stand apart in the source and are kept apart here. Residues, ends and D or L forms follow the SMILES beside them.

Key:
[1] = test system: dorsal root ganglion neurons; details: 10 μM, 12 h
motor coordination = experiment: Rotarod test for motor coordination; type: in vivo, mouse (C57BL6); details: 10 and 50 mg/kg i.p.
Method: Rotarod test for motor coordination. The rotarod test was performed as described previously (Onyszchuk, G., He, Y. Y., Berman, N. E., & Brooks, W. M. Detrimental effects of aging on outcome from traumatic brain injury: a behavioral, magnetic resonance imaging, and histological study in mice. J. Neurotrauma. 25, 153-171 (2008)) with slight modifications. Briefly, the latency to fall off a rotating rod was measured at two different rotational accelerations (fast and slow). The rotarod device (IITC Life Science, Inc., Woodland Hills, Calif., USA) consists of a metal rod with hard plastic drums (diameter: 1.25 in) in each of five individual lanes. For slow acceleration, the device was accelerated from 1 rpm to 18 rpm over 90 seconds, with each trial lasting a maximum of 120 seconds. For fast acceleration, the device was accelerated from 1 rpm to 30 rpm over 90 seconds, with each trial lasting a maximum of 120 seconds. The trials ended when the mouse (C57BL6) either fell off the rod or clung to the rod as it made one complete rotation. The rotarod tests were performed before the injection to score the baseline latencies for each animal. These trials also served to acclimate the animals to the test paradigm. […] Performance was evaluated 3 days following injection.

CaV2.2 = molecular target: T1, CaV2.2 (Rattus norvegicus, UniProt Q02294); experiment: Peptide spot array far-Western: CaV2.2 binding to 15-mer CRMP-2 peptides; details: 15-mer peptide #96 overlaid with spinal cord lysates / rat brain synaptosomes
T1 construct: incubated with a purified synaptosome fraction enriched in Ca^2+ channels; from tissue; host or cells: P1 neonatal rat brain synaptosomes, enriched on WGA-Sepharose and heparin-agarose
T1 sequence (Q02294 whole entry): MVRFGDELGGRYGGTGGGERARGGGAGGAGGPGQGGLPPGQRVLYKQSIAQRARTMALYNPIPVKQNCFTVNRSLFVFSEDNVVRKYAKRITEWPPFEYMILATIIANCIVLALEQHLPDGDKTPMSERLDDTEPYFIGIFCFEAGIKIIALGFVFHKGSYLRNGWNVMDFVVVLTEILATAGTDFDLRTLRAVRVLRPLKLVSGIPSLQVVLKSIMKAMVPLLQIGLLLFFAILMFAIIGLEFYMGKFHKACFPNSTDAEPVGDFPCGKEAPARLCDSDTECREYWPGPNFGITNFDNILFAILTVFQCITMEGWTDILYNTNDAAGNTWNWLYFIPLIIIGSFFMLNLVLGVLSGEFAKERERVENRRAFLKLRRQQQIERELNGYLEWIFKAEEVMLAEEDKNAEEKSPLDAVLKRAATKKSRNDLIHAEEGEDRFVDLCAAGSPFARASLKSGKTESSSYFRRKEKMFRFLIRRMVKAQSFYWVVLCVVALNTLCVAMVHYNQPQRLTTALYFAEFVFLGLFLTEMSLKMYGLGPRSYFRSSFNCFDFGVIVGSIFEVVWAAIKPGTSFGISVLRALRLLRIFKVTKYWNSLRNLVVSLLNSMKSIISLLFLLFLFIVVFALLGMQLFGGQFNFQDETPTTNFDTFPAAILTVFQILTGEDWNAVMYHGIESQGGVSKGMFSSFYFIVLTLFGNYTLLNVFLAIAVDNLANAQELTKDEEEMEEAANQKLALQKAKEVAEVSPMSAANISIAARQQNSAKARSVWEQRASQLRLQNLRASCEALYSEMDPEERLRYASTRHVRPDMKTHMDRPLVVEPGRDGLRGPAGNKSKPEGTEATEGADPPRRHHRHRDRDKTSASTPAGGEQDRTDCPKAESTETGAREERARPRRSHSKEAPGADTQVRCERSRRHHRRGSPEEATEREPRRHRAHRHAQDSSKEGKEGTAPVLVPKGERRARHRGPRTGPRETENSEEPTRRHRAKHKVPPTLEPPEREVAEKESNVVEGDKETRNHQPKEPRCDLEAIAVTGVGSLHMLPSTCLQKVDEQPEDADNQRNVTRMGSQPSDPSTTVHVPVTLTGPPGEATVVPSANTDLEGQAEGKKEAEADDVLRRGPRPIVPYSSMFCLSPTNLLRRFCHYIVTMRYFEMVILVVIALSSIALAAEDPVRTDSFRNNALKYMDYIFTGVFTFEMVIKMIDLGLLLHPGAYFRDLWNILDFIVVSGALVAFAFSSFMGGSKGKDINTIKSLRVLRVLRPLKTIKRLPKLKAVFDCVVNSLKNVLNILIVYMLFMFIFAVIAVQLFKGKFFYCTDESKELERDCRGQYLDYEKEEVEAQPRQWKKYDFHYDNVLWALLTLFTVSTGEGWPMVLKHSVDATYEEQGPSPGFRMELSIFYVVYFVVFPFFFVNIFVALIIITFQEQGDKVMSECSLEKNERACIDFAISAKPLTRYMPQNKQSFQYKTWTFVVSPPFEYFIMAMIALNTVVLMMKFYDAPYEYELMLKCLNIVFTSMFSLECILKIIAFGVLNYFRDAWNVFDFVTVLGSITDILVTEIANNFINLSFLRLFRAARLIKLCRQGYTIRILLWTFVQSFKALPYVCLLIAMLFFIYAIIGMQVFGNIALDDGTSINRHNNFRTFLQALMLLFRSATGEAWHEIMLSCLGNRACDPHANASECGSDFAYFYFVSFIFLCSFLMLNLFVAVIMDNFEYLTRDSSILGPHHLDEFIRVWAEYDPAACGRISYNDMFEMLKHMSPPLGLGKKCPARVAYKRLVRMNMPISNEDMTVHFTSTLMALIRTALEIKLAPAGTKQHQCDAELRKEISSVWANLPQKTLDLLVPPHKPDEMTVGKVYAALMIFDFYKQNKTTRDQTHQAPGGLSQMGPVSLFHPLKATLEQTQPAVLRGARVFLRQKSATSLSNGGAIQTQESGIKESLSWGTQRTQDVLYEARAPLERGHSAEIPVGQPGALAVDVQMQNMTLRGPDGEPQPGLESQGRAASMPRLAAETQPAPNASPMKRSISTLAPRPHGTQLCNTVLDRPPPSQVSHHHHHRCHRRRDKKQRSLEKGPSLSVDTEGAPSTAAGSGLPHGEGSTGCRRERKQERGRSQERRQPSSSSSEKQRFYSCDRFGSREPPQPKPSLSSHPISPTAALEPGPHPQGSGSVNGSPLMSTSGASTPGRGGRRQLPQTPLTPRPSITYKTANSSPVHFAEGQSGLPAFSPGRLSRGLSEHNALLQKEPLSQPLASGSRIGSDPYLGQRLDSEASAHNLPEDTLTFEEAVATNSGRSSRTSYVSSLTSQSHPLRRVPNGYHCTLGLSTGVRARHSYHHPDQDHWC
Method: Purification/Enrichment of Ca^2+ channels from synaptosomes. In order to prepare a rich source of CaV2.2 for the far-Western analyses (see below), synaptosomes from P1 neonatal rat brains were solubilized with digitonin and enriched by chromatography on WGA-Sepharose as described previously. Briefly, 30 PN1 neonatal rat brains were homogenized in 180 ml of 320 mM sucrose with a glass-Teflon homogenizer. After a short centrifugation (5000 rpm, 2 min), the supernatant (SN) was centrifuged (42,000 rpm, 60 min). The membranes were solubilized with 1.2% digitonin, 80 mM sodium phosphate buffer, pH 7.4 for 20 min. Unsolubilized material was removed by the centrifugation as before, and the supernatant (S3) was poured over a 40 ml WGA-Sepharose column (50 ml/h). After incubation for 1 hr at 4° C., the column was washed with 10 column volumes of 0.1% digitonin, 75 mM NaCl, 50 mM sodium phosphate, 10 mM Tris-HCl (pH 7.4) at a flow rate of 50 ml/hr. The glycoproteins bound to the WGA-Sepharose column were eluted with 100 mM N-acetyl-D-glucosamine (Sigma, St. Louis, Mo.) in the same buffer at a flow rate of 50 ml/hr. Three milliliter fractions were collected and the protein concentration of each fraction was determined by BCA protein assay kit (Thermo Fisher Scientific, Shelbyville, Ind.). […]

CC(C)C[C@H](NC(=O)CNC(=O)[C@H](CCCNC(=N)N)NC(=O)[C@@H]1CCCN1C(=O)[C@@H](NC(=O)CNC(=O)[C@H](CCCNC(=N)N)NC(=O)[C@H](CC(C)C)NC(=O)[C@H](CCC(=O)O)NC(=O)[C@H](C)NC(=O)[C@H](CC(C)C)NC(=O)[C@H](CCCNC(=N)N)NC(=O)[C@H](CO)NC(=O)[C@H](CCCNC(=N)N)NC(=O)[C@H](C)NC(=O)[C@H](CCCNC(=N)N)NC(=O)[C@H](CCCNC(=N)N)NC(=O)[C@H](CCCNC(=N)N)NC(=O)[C@H](CCC(N)=O)NC(=O)[C@H](CCCNC(=N)N)NC(=O)[C@H](CCCNC(=N)N)NC(=O)[C@H](CCCCN)NC(=O)[C@H](CCCCN)NC(=O)[C@H](CCCNC(=N)N)NC(=O)CNC(=O)[C@@H](N)Cc1ccc(O)cc1)C(C)C)C(=O)O [TAT-CBD3] (H-YGRKKRRQRRRARSRLAELRGVPRGL-OH; N-terminus and C-terminus assumed)
cell viability (MTT, absorbance at 490 nm) [1]: without affecting cell viability
cell viability (MTT, absorbance at 490 nm) ([1]; listed as TAT CBD3): does not affect cell viability
accelerating rotarod performance (motor coordination): had no effect in the accelerating rotarod test

ARSRLAELRGVPRGL (CBD3)
binding to CaV2.2 (CaV2.2): bound to the CaV2.2
